Measured values from patent publication US9157069B2, “Method of producing pancreatic hormone-producing cells” (Takeda Pharmaceutical Company Limited, priority 2010, dated 2015).
“Also recorded” adds a separate entry of the source.

What was measured:
[1] = test system: human iPS cells; experiment: Endoderm induction of human iPS cells, SOX17 gene expression by quantitative RT-PCR; format: cell-based; details: GSK3 inhibitor (CHIR99021 3 μM or BIO 0.5 μM) with activin A 100 ng/ml, after 2 days in CHIR99021 3 μM; from day 4 of culture
Description: To the human iPS cells sedimented in the centrifuge tube, 0.25% trypsin-1 mM EDTA solution (GIBCO) was added, and allowed to dissociate until they form singulated cells. Then, human iPS cells dispersed in a medium were seeded at a density of 15×10^4 cells per one 100 mm dish coated with BD Matrigel (Nippon Becton Dickinson Company, Ltd.), and cultured at 37° C., 5% CO2 for 1 day. The 100 mm dish used was one coated with BD Matrigel diluted 40-fold with serum-free DMEM/F12 medium (Invitrogen), at room temperature for 3 hr or longer. As a medium for dispersion and seeding was a medium for primate ES cell (ReproCELL Inc.) added with 10 μM Y-27632 (Wako Pure Chemical Industries, Ltd.). […]
To examine variation in the expression of endoderm differentiation markers when human iPS cells were cultured, the cells after differentiation induction were recovered over time, and total RNA fraction was purified using RNeasy96 (Qiagen). cDNA was synthesized using PrimeScriptRT reagent kit (Takara Bio Inc.), quantitative RT-PCR was performed, and the gene expression level of a primitive streak marker Brachyury, and an endoderm marker SOX17 was measured. […]
The level of the gene expression of SOX17 when human iPS cells were cultured was measured over time. […]

[2] = test system: human iPS cells; experiment: Differentiation of human iPS cells into pancreatic hormone-producing cells on BD Matrigel or fibronectin substrate, time-course expression of differentiation markers; format: cell-based; details: substrate for endoderm induction, 100 mm dish coating diluted 40-fold
Description: First, human iPS cells maintained in the state of a cell mass were dissociated until they formed singulated cells in the same manner as in Example 1. Then, human iPS cells dispersed in a medium were seeded at a density of 60×10^4 cells per one 100 mm dish coated with fibronectin (Invitrogen), and cultured at 37° C., 5% CO2 for 1 day. The 100 mm dish used was one coated with fibronectin diluted 40-fold with serum-free DMEM/F12 medium (Invitrogen), at room temperature for 3 hr or longer. (indicated as “fibronectin” in FIG. 7) Human iPS cells dispersed in a medium were seeded at a density of 15×10^4 cells per one 100 mm dish coated with BD Matrigel (Nippon Becton Dickinson Company, Ltd.), and cultured at 37° C., 5% CO2 for 1 day. The 100 mm dish used was one coated with BD Matrigel diluted 40-fold with serum-free DMEM/F12 medium (Invitrogen), at room temperature for 3 hr or longer. (indicated as “Matrigel” in FIG. 7) As a medium for dispersion and seeding was a medium for primate ES cell (ReproCELL Inc.) added with 10 μM Y-27632 (Wako Pure Chemical Industries, Ltd.). One day after seeding, the medium was exchanged with DMEM/F12 medium containing a GSK3β inhibitor CHIR99021 (3 μM) and 2% B-27 supplement (GIBCO) and cultured for 2 days. Then the medium was exchanged with DMEM/F12 medium containing activin A (50 ng/ml) and CHIR99021 (1 μM) and cultured for 2 days.

Compound	expression level of SOX17 (relative to GAPDH) [1]	time-course variation in the expression of differentiation markers (SOX17, PDX1, NGN3, insulin), compared between substrates [2]
O=C1Nc2cc(Br)ccc2/C1=C1/Nc2ccccc2/C1=N\O [BIO, (2′Z,3′E)-6-bromoindirubin-3′-oxime]	remarkably increased; also recorded: increased over time	–
Cc1c[nH]c(-c2cnc(NCCNc3ccc(C#N)cn3)nc2-c2ccc(Cl)cc2Cl)n1 [CHIR99021, 6-[[2-[[4-(2,4-dichlorophenyl)-5-(4-methyl-1H-imidazol-2-yl)-2-pyrimidinyl]amino]ethyl]amino]nicotinonitrile]	remarkably increased; also recorded: increased over time	–
fibronectin	–	almost the same
